Patent US20250339445A1, “Modulators of Orphan Nuclear Receptors for Treating Pancreatitis, Glioblastoma, Sarcopenia and Stroke” (Emory University, priority 2020, published 2025)
“Also recorded” adds a separate entry of the source.

Key:
[1] = system: high fat diet (HFD) C57BL/6 mice; test: HFD-fed C57BL/6 mice, 15 mg/kg Compound 1 (Example 8); assay type: in vivo
Protocol: (§1) Male C57BL/6J mice, 7 to 8 weeks old, were housed randomly in standard cages and were fed a HFD, or atherogenic diet (consisting 1% Chol and 0.5% cholic acid, see also Table 6). All mice had free access to water during the experimental period. During the feeding period body weight was monitored every 3 days. In the HFD experiment, after 4 or 6 weeks, the resultant obese mice were treated with antagomiR-122 (5 μg/mouse once a week for 3 weeks), or i.p. injected with Compound 1 (RORα agonist, 7.5 mg/kg twice a week for 3 weeks; or 15 mg/kg 3 times a week for 3 weeks). The obese control (HFD) group was administered only saline with DMSO and antagomiR-control. After 3 weeks of treatment mice were sacrificed and livers were taken for RNA-seq analysis. Livers, white adipose, and skeletal muscle tissues were frozen in liquid nitrogen or in optimum cutting temperature embedded frozen blocks, for further RNA and histologic analysis. In the atherogenic diet experiment mice were treated with 15 mg/kg Compound 1 after 3 weeks with the diet. After 3.5 weeks of treatment, mice were sacrificed, and the livers were frozen in liquid nitrogen or in optimum cutting temperature embedded frozen blocks. Plasma was collected from atherogenic diet-fed mice and saved in −20° C. for ALT and AST analysis using the Reflotron® Analyzer and test-strips (Roche).
Experimental design: C57BL/6 mice fed for 6 weeks with high fat diet (HFD) were injected with 15 mg/kg Compound 1 (or saline+DMSO) 3 times a week for 3 weeks (n=6).

[2] = system: atherogenic diet C57BL/6 mice; test: Atherogenic (fibrotic) diet mouse model; assay type: in vivo
Protocol: as §1
Livers and adipose samples were placed in 4% buffered formaldehyde for 24 hours, followed by 80% ethanol and then embedded in paraffin blocks. Liver and adipose tissues were cut into […], deparaffinized with xylene and hydrated through graded ethanol. For the H&E staining, tissue sections were stained with hematoxylin (Emmonya Biotech Ltd.) and eosin (Leica, Surgipath). Liver macrophages were stained using rat anti-mouse F4/80 antigen (Serotec), followed by anti-Rat HRP (Histofine) and developed with a DAB kit (Zymed). Liver sections were stained for Masson Trichrome (Sigma). Liver CD3+ T cells were stained using Rat anti human-CD3-antibody (Bio-Rad), followed by anti-Rat HRP (Histofine) and developed with AEC (Invitrogen). α-SMA positive cells were stained using mouse anti-Human smooth Muscle Actin antibody (Dako), followed by anti-mouse HRP (Dako) and developed with DAB. The percentage area stained positively per high power field was calculated by ImageJ Software in 5-10 random fields.
Experimental design: C57BL/6 mice fed for 3 weeks with atherogenic diet (to induce fibrosis) and injected with 15 mg/kg Compound 1 (or saline+DMSO) 3 times a week for 3.5 week (n=8).
After 3 weeks of treatment mice were sacrificed and livers were taken for RNA-seq analysis. Livers, gonadal white adipose, and skeletal muscle tissues were frozen in liquid nitrogen or in optimum cutting temperature embedded frozen blocks, for further RNA and histologic analysis. In the atherogenic diet experiment mice were treated with 15 mg/kg Compound 1 after 3 weeks with the diet. After 3.5 weeks of treatment, mice were sacrificed, and the livers were frozen in liquid nitrogen or in optimum cutting temperature embedded frozen blocks. Plasma was collected from atherogenic diet-fed mice and stored at −20° C. for ALT and AST analysis using the Reflotron® Analyzer and test-strips (Roche).

miR-122 = test: Expression and secretion of RORα-regulated microRNA in Huh-7 cells (qRT-PCR); assay type: cell-based, human
Protocol: Secreted microRNA levels in the medium of Huh-7 cells were analyzed by qRT-PCR and were normalized to spiked C. elegans miR-39. miR-18 and miR-93 served as controls for secreted microRNA and were not affected following Compound 1 addition.
RNA extraction and quantitative Real-Time PCR analysis. Total RNA, including small RNAs, were isolated from […] of plasma or culture media samples using the miRNeasy Mini kit (Qiagen, Valencia, CA, USA) with 2 minor modifications. First, 200 μl of plasma or culture media were lysed with 1 ml of Qiazol solution. Second, a 50 pmol/1 of synthesized single strand Caenorhabditis elegans miRNA (cel-miR-39) was added as the spike-in control to monitor extraction efficiency. The remainder of the RNA extraction was performed according to the manufacturer's instructions. miRNAs were eluted with 30 μl of RNase-free water. Total RNA, including miRNAs, from cells or tissues were isolated using TRIzol reagent (Invitrogen, Carlsbad, CA, USA). cDNA was synthesized using the Quanta Biosciences qScript™ cDNA Synthesis Kit (95047-100) for mRNA analysis, and using the qScript™ microRNA cDNA Synthesis Kit (95107-100) for miRNAs analysis. qRT-PCR of miRNAs and mRNA was performed using the ABI 7900 HT Real-Time PCR System and a SYBR Green PCR Kit: Quanta Cat. #84018 and #84071 respectively. The fold expression and statistical significance were calculated using the 2-ΔΔ Ct method. All experiments were performed in triplicates.

CD4^+ Th17 cells = test: Modulation of Th17 populations in human PBMCs (flow cytometry); assay type: cell-based; conditions: 10 μM, 3 day assay
Protocol: Human peripheral blood mononuclear cells (PBMCs) were isolated from four healthy donors. Four experiments were conducted and analyzed by flow cytometry over 3 day assay. The control group had no drug treatment, a second were treated with 10 μM Compound 1, a third group was stimulated with PHA/IL-2 without treatment, and the fourth group was stimulated with PHA/IL-2 and incubated with 10 μM Compound 1. […] Further, Compound 1 has no effect on Th17 populations in the absence of PHA/IL-2 stimulation.

[3] = Cellular toxicity assay, CEM cells; assay type: cell-based; conditions: human, CEM cells (human lymphoblastoid), compared to cycloheximide (+ control)
Protocol: The toxicity of the compounds was assessed in human PBM, CEM (human lymphoblastoid), and Huh-7 cells, as described previously (see Schinazi R. F., Sommadossi J.-P., Saalmann V., Cannon D. L., Xie M.-Y., Hart G. C., Smith G. A. & Hahn E. F. Antimicrob. Agents Chemother. 1990, 34, 1061-67). Cycloheximide was included as positive cytotoxic control, and untreated cells exposed to solvent were included as negative controls. The cytotoxicity IC50 was obtained from the concentration-response curve using the median effective method described previously (see Chou T.-C. & Talalay P. Adv. Enzyme Regul. 1984, 22, 27-55; Belen'kii M. S. & Schinazi R. F. Antiviral Res. 1994, 25, 1-11).

[4] = atherogenic diet, 15 mg/kg 3 times a week for 3.5 weeks
[5] = atherogenic diet, 3 times weekly for 3.5 weeks
[6] = liver, atherogenic diet, 15 mg/kg 3 times a week for 3.5 weeks

With `O=C1Nc2cc(C(=O)N3CCC(Cc4ccccc4)CC3)ccc2Nc2ccccc21` [Compound 1] the “Expression of RORα-regulated genes FGF21 and Gpase6” value ([1]; HFD 6 weeks, 15 mg/kg 3 times a week for 3 weeks, liver) was “significantly induced expression”, the “miR-122 and precursors in plasma and liver” value ([1]; HFD 6 weeks, 15 mg/kg 3 times a week for 3 weeks, 15 mg/kg) was “induced expression and secretion; also recorded: increased” and the “Hepatic synthesis of triglycerides” value ([1]; mice fed a HFD or atherogenic diet) was “reduced hepatic synthesis of triglycerides”. The “Liver vasculature by CD34 staining” value ([2]; atherogenic diet) was “no effect”, the “NK cells in the livers” value ([2]; atherogenic diet) was “significant reduction in NK cells” and the “Biomarkers of inflammation (Tgfb2 and TgfbR2) and fibrosis (Acta1, Col1A1 and Col3A1), liver mRNA” value [2, 4] was “reducing”. For the same molecule, the “Mature miR-122 in tissue (liver) and plasma” value [2, 4] was “increased”, the “ALT and AST plasma levels (liver enzymes)” value ([2]; atherogenic diet, 15 mg/kg 3 times a week for 3.5 weeks, 15 mg/kg) was “significantly improved; also recorded: reducing significantly” and the “Liver fibrosis (Masson Trichrome and αSMA staining)” value [2, 5] was “significant reduction in liver fibrosis”. The “Liver inflammation (H&E, CD3 and F4/80 staining)” value [2, 5] was “significantly improved liver inflammation; also recorded: improved liver inflammation significantly”, the “Immune infiltrate by H&E staining” value [2, 6] was “decreased immune infiltrate” and the “Myeloid infiltrate by F4/80 staining” value [2, 6] was “decreased levels of myeloid infiltrate”. The “T-cell density by CD3 staining” value [2, 6] was “decreased T-cell density”, the “Reduction of fibrotic area, Masson Trichrome (M.T)” value ([2]; liver, versus untreated cohort) was 5 fold and the “Reduction of fibrotic area, α-SMA” value ([2]; liver, versus untreated cohort) was 7 fold. For the same molecule, the “Secreted control microRNA (miR-18, miR-93) in Huh-7 medium” value (miR-122; 1 μM, 24 hours) was “not affected”, the “Secreted miR-122 level in Huh-7 medium” value (miR-122; 1 μM, 24 hours) was “increases secretion of miR-122” and the “Cellular miR-122 levels” value (miR-122; Huh7, 16 h exposure) was “did not change”. For the same molecule, the “miR-122 secreted to the medium” value (miR-122; Huh7, 16 h exposure) was “significant miR-122 was secreted to the medium; also recorded: significant amount of MIR122 was secreted to the medium”, the “Th17 total population in the presence of PHA/IL-2 stimulation” value (CD4^+ Th17 cells; relative to vehicle-control) was “decreases the CD4^+ Th17 population” and the “Total viability of CD4^+ T cells” value (CD4^+ Th17 cells; with or without PHA/IL-2) was “no effect”. It also gave a CC50 [3] of 11 µM.
